Reference: publication PMC10451623 (Antioxidants, 2023)
pEC50: −log10 of the molar value.

target: T1, PPARγ-LBD (Homo sapiens, UniProt P37231); assay: TR-FRET PGC1α coactivator recruitment assay; assay type: biochemical; set-up: PPARγ-LBD (amino acids 203–477 in isoform 1); made in house; host or cells: Rosetta (DE3) pLysS (E. coli); settings: PGC1α peptide, read-out: EC50, PGC1α recruitment to PPARγ-LBD
T1 sequence (P37231 203-477 isoform P37231-2): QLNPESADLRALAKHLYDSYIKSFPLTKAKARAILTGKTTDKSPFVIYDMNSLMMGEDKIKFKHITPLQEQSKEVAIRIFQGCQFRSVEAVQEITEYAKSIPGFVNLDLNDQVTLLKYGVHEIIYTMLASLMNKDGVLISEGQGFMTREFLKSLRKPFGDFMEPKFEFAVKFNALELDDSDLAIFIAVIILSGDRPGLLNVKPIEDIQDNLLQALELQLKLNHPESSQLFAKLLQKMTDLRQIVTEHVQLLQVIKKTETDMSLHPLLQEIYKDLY
Experimental: Subsequently, 5 µL of 4 nM Eu-W1024-labeled anti-6×His antibody/80 nM ULight-Streptavidin (PerkinElmer) was added to each well, and the microplate was incubated in the dark for 2 h, at room temperature. […] The nonlinear fitting and the calculation of the EC50 were performed using the Prism 9 software (GraphPad, San Diego, CA, USA).
The ligand-bound activated forms of PPARs are stabilized by associations with specific coactivators, thereby enabling the regulation of specific gene expression.
Figure 2 TR-FRET-based LBD-mediated human PPARα/δ/γ coactivator recruitment assay. […] Data are presented as the mean ± SE of three or four independent experiments with duplicate samples, and the calculated EC50 values are shown.

Row | pEC50 | Structure (SMILES)
1 | 4.81 | CSc1ccc(C(=O)/C=C/c2cc(C)c(OC(C)(C)C(=O)O)c(C)c2)cc1 [elafibranor]
2 | 5.33 | O=C(O)CCCc1cc2cc(Cl)ccc2n1S(=O)(=O)c1ccc2ncsc2c1 [lanifibranor]
3 | 5.99 | CCO[C@@H](Cc1ccc(OCCn2c(C)ccc2-c2ccc(SC)cc2)cc1)C(=O)O [saroglitazar]
4 | 4.71 | CCO[C@H](COc1ccc(C(F)(F)F)cc1)CSc1ccc(OCC(=O)O)c(C)c1 [seladelpar]
